# Positions of bridges follow the written chain, without caps; N, C: chain ends. Non-standard residues stand in square brackets, D forms with d. Residues, ends and D or L forms follow the SMILES beside them. dCha = N[C@H](CC1CCCCC1)C(=O)O
# System: human red blood cells (RBCs)
# Assay: Hemolysis assay
# Format: cell-based
# Conditions: 1 h, 37 °C, PBS pH 7.0, absorbance 576 nm, 4 donors in duplicate
# Procedure: 4 Cytotoxicity evaluation of analogue 12. Human primary dermal fibroblasts (A), liver cell line HepG2 (B), and kidney cell line HEK293T (C) cells (5 × 10^3 cells/well in 96-well plates) were treated with increasing concentrations of analogue 12 or 1 μM staurosporine (STS, used as a positive toxicity control) for 24 or 48 h, as indicated. Viability of cells was determined using an MTS-based assay. Results (% cell viability) are the mean ± SD of three independent experiments performed in triplicate. (D) Freshly collected human red blood cells (RBCs) were exposed to increasing concentrations of 12 or Triton X-100 (TX), as indicated, for 1 h. Hemolytic activity (% hemolysis) was determined by spectrophotometrically measuring the release of hemoglobin compared to that with TX (used as a positive control). […]
# day, cells were treated in triplicates with increasing concentrations of Novltex analogue 12, as indicated in the corresponding figure and the figure legend (Figure 4A-C). […] Cell viability assessed after 24 h or 48 h incubation using an MTS-based CellTiter 96® AQueous One Solution Cell Proliferation Assay (Promega #G3582, Southampton UK) as per manufacturer’s instructions. Absorbance was recorded at 490 nm. Relative cell viability was determined by subtracting the blank (cell culture medium and MTS only) from individual values before normalizing against the untreated control. […]
compound,measurement,setting,value
"CC(C)C[C@@H]1NC(=O)[C@H](C)NC(=O)[C@H](NC(=O)[C@H](CO)NC(=O)[C@@H](CCCCN)NC(=O)[C@@H](CC2CCCCC2)NC(=O)[C@@H](N)Cc2ccccc2)[C@H](C)OC(=O)[C@H](CC(C)C)NC1=O [analogue 12, Leu2Cha–Novltex] (H-F[dCha][dK]S[dT]ALL; ester 5-C)",hemolysis of human erythrocytes,62.5 μg/mL (125× MIC),low hemolysis
same,hemolysis of human erythrocytes,concentrations up to 31.2 μg/mL,no detectable hemolysis

# — publication PMC12481569, “Novltex: A New Class of Antibiotics with Potent Activity against Multidrug-Resistant Bacterial Pathogens–Design, Synthesis, and Biological Evaluation” (Journal of Medicinal Chemistry, 2025)
